According to a melting point compilation (Tetko et al.):

SMILES	melting point
FC(F)n1ccnc1CN1CCNCC1	73 to 75 °C
CCNC(=O)c1ccc(I)cc1	148 to 150 °C
Cc1nn(-c2ccc(F)cc2)c(C)c1CC(=O)O	171 to 173 °C
CC(C)(C)OC(=O)N1C[C@H](C(=O)O)[C@@H](C(F)(F)F)C1	117 to 119 °C
N#Cc1cccc(OCCBr)c1	36 to 38 °C
O=S(=O)(Nc1cccc(Cl)c1)c1ccc2oc(S)nc2c1	173 to 175 °C
CCn1nc(C(=O)O)ccc1=O	203 to 205 °C
Nn1c(S)nnc1Cc1ccc(F)cc1	203 to 205 °C
O=C(CCl)NCc1ccccc1F	79 to 81 °C
Cc1cc(C)c([N+](=O)[O-])c(=O)[nH]1	179 to 181 °C
CC(=O)NC12CC3CC(C1)CC(C(=O)O)(C3)C2	258 to 260 °C
NS(=O)(=O)c1cccc2cnccc12	222 to 224 °C
CCCNc1ccc(S(N)(=O)=O)cc1N	104 to 106 °C
NS(=O)(=O)c1ccc(OCCSCC(=O)O)cc1	196 to 198 °C
COC(=O)c1cccc(C(N)=NO)c1	102 to 104 °C
Cc1c[nH]c(=O)n1-c1cccc(N)c1	232 to 234 °C
O=C(O)C1CCN(C(=O)/C=C/c2ccccc2)CC1	191 to 196 °C
O=[N+]([O-])c1ccc(S(=O)(=O)CCO)cc1	128 to 130 °C
FC(F)(F)c1cc[nH]n1	45 to 47 °C
O=C(O)CCn1cnc2cc(F)c(F)cc21	157 to 159 °C
Nc1ccc2c(ccn2CC(=O)N2CCOCC2)c1	209 to 211 °C
Clc1cncc(N2CCCC2)n1	53 to 55 °C
COCc1nc(Cl)cc(Cl)n1	43 to 45 °C
O=C(CCl)NCc1ccccc1COc1ccccc1	100 to 102 °C
COCCSc1ccc([N+](=O)[O-])cc1C(=O)O	159 to 161 °C
COc1ccc2[nH]cc(C3=CCNCC3)c2c1	181 to 183 °C
COc1nc(N(C)C)sc1C=O	69 to 71 °C

SMILES	melting point
O=C(O)C(Oc1ccc(Br)cc1F)c1ccccc1 (centres undefined)	104 to 106 °C
CN(C)CCn1c(S)nc2ccsc2c1=O	192 to 194 °C
O=C(O)CCNC(=O)OCc1ccccc1	104 to 108 °C
CC(=O)c1ccc(N)cc1Cl	58 to 60 °C
O=C(O)C12CC3CC(C1)CC(c1ccccc1)(C3)C2	161 to 163 °C
Nc1ccc2[nH]c(-c3ccco3)nc2c1	230 to 232 °C
CCC(C(=O)O)N1CCCC1=O (centres undefined)	156 to 158 °C
O=C(O)C1CCN(S(=O)(=O)c2ccc3c(c2)OCCCO3)CC1	173 to 178 °C
COc1ccccc1NS(=O)(=O)c1cc(N)ccc1N1CCCC1	159 to 161 °C
O=C(O)c1cc(NCc2ccccc2)ccn1	274 to 276 °C
Nc1ccc(N2CCSCC2)c(C(=O)O)c1	263 to 265 °C
O=C(O)c1cc(N2CCOC2=O)ccc1F	232 to 234 °C
Cn1c(C(=O)O)c(Br)c2ccccc21	204 to 206 °C
CN(c1ccc(OCC(=O)O)cc1)S(=O)(=O)c1cccs1	145 to 147 °C
O=Cc1csc(-c2ccco2)n1	90 to 92 °C
O=C(O)c1cn(CCOc2ccccc2Cl)c2ccccc12	186 to 188 °C
Cn1cnnc1-c1ccc(N)nc1	249 to 251 °C
CCCn1c(=O)[nH]c(=O)c2c(C(=O)O)cc(-c3ccccc3)nc21	230 to 232 °C
CN(C(=O)c1ccc(Cl)c(N)c1)c1ccccc1	120 to 122 °C
COc1ccc(/C=C/C(=O)O)cc1S(=O)(=O)N(C)C	229 to 231 °C
Cc1cc(-c2csc(N)n2)c(F)cc1F	219 to 221 °C
ClCc1ccc(Oc2cccc(Cl)c2Cl)cc1	62 to 64 °C
CCNc1ccc(S(=O)(=O)C(F)F)cc1N	115 to 117 °C
Nc1ncn(Cc2cccc(Br)c2)n1	147 to 149 °C
CCn1c(C)cs/c1=N\c1ccc(Cl)cc1	190 to 192 °C
O=C(O)c1[nH]c2ccccc2c1Cl	179 to 181 °C
CCOc1cccc(C=CC(=O)O)c1OC1CCCCC1	137 to 139 °C
